The source of these data is publication PMC7100991 (PLoS Pathogens, 2020).

SMILES strings stand for the structures.

The IC50 is the concentration that gives 50% inhibition. A lower IC50 goes with greater potency.

This assay concerns the target T1, Fusarium graminearum myosin I (FgMyoI) (Fusarium graminearum, UniProt I1RCT2).
T1 construct: gene FGRAMPH1_01T03465
Put plainly: biochemical.

Compound `CCOC(=O)/C(C#N)=C(\N)c1ccccc1` [phenamacril] yielded a 50% inhibitory concentration (IC50) of 360 nM.
